Molecular target: T1, Bst DNA polymerase (Geobacillus stearothermophilus, UniProt P52026)
T1 construct: purchased New England Biolabs
T1 sequence (P52026 290-876 limits assumed): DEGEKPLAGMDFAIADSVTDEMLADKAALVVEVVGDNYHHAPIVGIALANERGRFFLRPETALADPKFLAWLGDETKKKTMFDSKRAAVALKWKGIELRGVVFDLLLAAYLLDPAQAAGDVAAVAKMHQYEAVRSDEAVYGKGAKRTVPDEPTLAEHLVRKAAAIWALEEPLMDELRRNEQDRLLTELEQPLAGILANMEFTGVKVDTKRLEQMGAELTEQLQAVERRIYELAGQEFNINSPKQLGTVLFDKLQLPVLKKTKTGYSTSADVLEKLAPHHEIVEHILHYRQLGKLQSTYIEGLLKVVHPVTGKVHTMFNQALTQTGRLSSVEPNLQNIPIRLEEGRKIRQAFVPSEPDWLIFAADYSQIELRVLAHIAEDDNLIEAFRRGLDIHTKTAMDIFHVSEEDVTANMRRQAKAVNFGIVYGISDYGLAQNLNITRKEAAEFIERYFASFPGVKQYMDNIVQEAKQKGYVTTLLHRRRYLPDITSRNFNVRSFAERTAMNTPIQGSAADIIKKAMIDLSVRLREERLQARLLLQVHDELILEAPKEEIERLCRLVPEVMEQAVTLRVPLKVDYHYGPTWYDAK
Assay: Single nucleotide extension of 6-mer primers at varying dNTP concentration
Assay type: biochemical
Conditions: for extension efficiency of 6-mer primer compared with natural dNTP: dNTP 0.5 microM to 130 microM, 45° C., 8 hours
Protocol: To further assess the incorporation efficiency of the modified nucleotides by Bst DNA polymerase, the efficiency for a single nucleotide extension reaction was determined using two 6-mer primers in the presence of varying concentrations of dATP, 2-amino-2′-deoxyadenosine-5′-triphosphate, dTTP or 2-thiothymidine-5′-triphosphate (illustrated as 2-thioTTP) (FIGS. 3A and 4A). For this study, the reaction mixtures contained: 20 mM Tris-Cl (pH 8.8 @ 25° C.), 10 mM KCl, 10 mM (NH4)2SO4, 2 mM MgSO4, 0.1% Triton-X100, 500 nanoM 6-mer primer, 20 nanoM 30-mer DNA template, 0.8 units/microL (˜70 nanoM) Bst DNA polymerase and a dNTP concentration ranging from 0.5 microM to 130 microM. The reaction mixtures were incubated at 45° C. for 8 hours and separated by electrophoresis on 20% denaturing (7M urea) polyacrylamide gels.

Nc1nc(N)c2ncn([C@H]3C[C@H](O)[C@@H](COP(=O)(O)OP(=O)(O)OP(=O)(O)O)O3)c2n1 [2-amino-2′-deoxyadenosine-5′-triphosphate]
extension efficiency of 6-mer primer compared with natural dNTP: approximately equal efficiencies

Cc1cn([C@H]2C[C@H](O)[C@@H](COP(=O)(O)OP(=O)(O)OP(=O)(O)O)O2)c(=S)[nH]c1=O [2-thiothymidine-5′-triphosphate]
EC50: ~6 µM
extension efficiency of 6-mer primer compared with natural dNTP: very similar

— patent US20040086880A1, “Method of producing nucleic acid molecules with reduced secondary structure” (priority 1999, published 2004)
